Results published in patent publication US4772459A, “Method for controlling emesis caused by chemotherapeutic agents and antiemetic agents useful therein” (priority 1986, dated 1988).
Where a name gives a salt, the structure may show the parent alone.

How the values were obtained:
Apomorphine Emesis = assay type: in vivo, beagle dogs; conditions: dog, apomorphine HCl 0.1 mg/kg s.c., protected if no emetic events in 1 h
Procedure: Mature beagle dogs, individually caged and weighing 10.6-14.5 kg, were used in these experiments. The animals were fed just before being dosed intravenously with drug (mg base/kg) or carrier (0.9% saline; 0.2 ml/kg). Each animal received 0.1 mg/kg apomorphine hydrochloride (1 mg/ml saline; Lilly) subcutaneously thirty minutes after administration of the test compound. […] If the animal had no emetic events, the animal was considered protected.

Dacarbazine Emesis = assay type: in vivo, beagle dogs; conditions: 1.0 mg/kg IV × 2, dog; dacarbazine 10 mg/kg i.v.; protected if 2 or less emetic events in 5 h
Procedure: Mature beagle dogs (7-16 kg) were used in these experiments. The animals were individually caged with water available ad libitum. Each dog was offered 300 g of Purina Dog Chow the day of an experiment. Drug (mg base/kg) or carrier (0.9% saline; 0.2 ml/kg) was administered intravenously 30 minutes before and 120 minutes after intravenous bolus administration of 10 mg/kg dacarbazine (10 mg DTIC/ml saline; Miles Pharmaceuticals). […] If the animal suffered 2 or less emetic events, the animal was considered protected.

Catalepsy = assay type: in vivo, Sprague Dawley rats (female); conditions: 20 mg/kg i.v., rat, tested one and two hours later
Procedure: Female Sprague Dawley rats (Harlen Industries, Indianapolis, Ind.), weighing 160-225 g, were used. The animals (n=6) were injected intravenously with drug (20 mg/kg) or carrier (saline; 2 ml/kg) and were tested one and two hours later. This involved placing the front paws of the rat on a horizontal metal bar suspended 10 cm above the table top and recording the number of seconds, to a maximum of 60, that the animal remains in this position. Each animal was tested three times in succession and the average time the animal remained on the bar was calculated. Student's non-paired "t" test was employed to determine the significance of differences between the control and treated groups.

Cisplatin Emesis = assay type: in vivo, Beagle dogs; conditions: for ED50: Canis lupus familiaris, iv, dog, drug i.v. 30 min before and 120 min after 3 mg/kg cisplatin i.v., blocked if 2 or less emetic events in 5 h
Procedure: Mature Beagle dogs of either sex, weighing 7-16 kg, were individually caged with water available ad libitum. Each animal was offered 300 g of Purina Dog Chow the day of an experiment. Drug in varying doses or carrier was administered intravenously 30 minutes before and 120 minutes after intravenous bolus administration of 3 mg/kg cisplatin (Ben Venue Laboratories, Inc., Bedford, Ohio). […] Emesis was considered blocked if the animal suffered 2 or less emetic events. Based upon these observations, ED50 values were determined for each of the compounds tested.

striatal DOPAC = experiment: Dopamine Turnover: striatal DOPAC response; assay type: in vivo, Sprague Dawley rats (male); conditions: rat; for Response of striatal DOPAC, percent change from control: intravenous
Procedure: Male Sprague Dawley rats were injected intravenously with various doses of test compound and whole brain was removed at a predetermined time after dosing. The striatum was dissected from the brain, homogenized in a buffer/organic solvent mixture, clarified with a centrifuge, and an aliquot of the supernatant analyzed for 3,4-dihydroxyphenylacetic acid (DOPAC) by high performance liquid chromatography coupled with an electrochemical detector. The results are expressed as the percent change from control. The standard deviation of the data generally required a difference of 18% from control to be statistically significant at the 0.05 level as determined by the Student's "t" test. DOPAC is a metabolite of dopamine.

Apomorphine Climbing = assay type: in vivo, ICR-Swiss mice (male); conditions: for ED50: ip, 0.5 h, mouse, dose yielding climbing index of 100, apomorphine HCl 1 mg/kg s.c. 30 min after drug, read-out: Apomorphine Climbing 50% ED
Procedure: Male ICR-Swiss mice (Harlan Industries, Indianapolis, Ind.), weighing 25-29 g, were placed in 8×10×16 cm wire cages. After a 1 to 1.5 hour acclimatization period, drug or carrier was administered intraperitoneally. Apomorphine hydrochloride (Lilly; 1 mg/kg) or carrier (saline, 10.0 ml/kg) was administered subcutaneously 30 minutes after test compound administration. Climbing behavior was assessed 20 minutes after apomorphine injection using the following scoring system:
(0) 4 paws on the floor of the cage
(1) 1, 2, or 3 paws grasping a side of the cage
(2) 4 paws grasping a side of the cage.
Climbing indexes were calculated using the formula: [formula] 50% ED values (i.e., the dose of drug which yields a climbing index of 100) were calculated using regression equations.

[1] = very high dosages, beginning prior to cisplatin and continuing through post administration; cited from earlier work

Question: Which “Apomorphine-induced emesis: Number Protected/Number Dosed” value (Apomorphine Emesis; 1.0 mg/kg IV) does the source give for O=C(NC[C@@H]1CCCN1)c1cc(Cl)cc2c1OCC2 [Compound 1, (L)-5-chloro-N--(2-pyrrolidinylmethyl)-2,3-dihydrobenzo[b]furan-7-carboxamide hydrochloride] here?
Answer: 0/2

Question: And the “Apomorphine-induced emesis: Number Protected/Number Dosed” value (Apomorphine Emesis; 2.0 mg/kg IV)?
Answer: 2/2

Question: And the “Dacarbazine-induced emesis: Number Protected/Number Dosed” value (Dacarbazine Emesis)?
Answer: 4/4

Question: And the Catalepsy (Catalepsy; hydrochloride)?
Answer: No

Question: What about the ED50 (Cisplatin Emesis) of the same compound?
Answer: 0.6 mg/kg

Question: And the “Response of striatal DOPAC, percent change from control” value (shortened to “Response … percent change from control”) (striatal DOPAC; 0.3 mg/kg)?
Answer: -11.6%

Question: What about the “Response … percent change from control” value (striatal DOPAC; 1.0 mg/kg) of the same compound?
Answer: -0.6%

Question: What about the “Response … percent change from control” value (striatal DOPAC; 3.3 mg/kg) of the same compound?
Answer: -2.5%

Question: What about the “Response … percent change from control” value (striatal DOPAC; 10 mg/kg) of the same compound?
Answer: 91.8%

Question: What about the “Response … percent change from control” value (striatal DOPAC; 33 mg/kg) of the same compound?
Answer: 255.4%

Question: What about the ED50 (Apomorphine Climbing) of the same compound?
Answer: 36.2 mg/kg

Question: Which results are given for Nc1cc2c(c(C(=O)NC[C@@H]3CCCN3)c1)OCC2 [Compound 2, (L)-5-amino-N--(2-pyrrolidinylmethyl)-2,3-dihydrobenzo[b]furan-7-carboxamide hydrochloride]?
Answer: Apomorphine-induced emesis: Number Protected/Number Dosed (Apomorphine Emesis; 4.0 mg/kg IV): 0/4; Dacarbazine-induced emesis: Number Protected/Number Dosed (Dacarbazine Emesis): 4/4; Catalepsy (Catalepsy; hydrochloride): No; ED50 (Cisplatin Emesis): ~1.75 mg/kg; Response of striatal DOPAC, percent change from control (striatal DOPAC; 0.3 mg/kg): 0.0%; Response of striatal DOPAC, percent change from control (striatal DOPAC; 1.0 mg/kg): -6.5%; Response of striatal DOPAC, percent change from control (striatal DOPAC; 3.3 mg/kg): -17.3%; Response of striatal DOPAC, percent change from control (striatal DOPAC; 10 mg/kg): 0.0%; Response of striatal DOPAC, percent change from control (striatal DOPAC; 33 mg/kg): -10.7%; ED50 (Apomorphine Climbing): 100 mg/kg

Question: What does the source list for Nc1c(Cl)cc(C(=O)NC[C@@H]2CCCN2)c2c1CCO2 [Compound 3, (L)-4-amino-5-chloro-N--(2-pyrrolidinylmethyl)-2,3-dihydrobenzo[b]furan-7-carboxamide hydrochloride]?
Answer: Apomorphine-induced emesis: Number Protected/Number Dosed (Apomorphine Emesis; 1.0 mg/kg IV): 0/4; Apomorphine-induced emesis: Number Protected/Number Dosed (Apomorphine Emesis; 2.0 mg/kg IV): 0/4; Apomorphine-induced emesis: Number Protected/Number Dosed (Apomorphine Emesis; 4.0 mg/kg IV): 0/4; Dacarbazine-induced emesis: Number Protected/Number Dosed (Dacarbazine Emesis): 4/4; Catalepsy (Catalepsy; hydrochloride): No; ED50 (Cisplatin Emesis): ~0.42 mg/kg; Response of striatal DOPAC, percent change from control (striatal DOPAC; 0.3 mg/kg): -14.4%; Response of striatal DOPAC, percent change from control (striatal DOPAC; 1.0 mg/kg): -10.0%; Response of striatal DOPAC, percent change from control (striatal DOPAC; 3.3 mg/kg): -6.2%; Response of striatal DOPAC, percent change from control (striatal DOPAC; 10 mg/kg): -2.7%; Response of striatal DOPAC, percent change from control (striatal DOPAC; 33 mg/kg): 6.4%; ED50 (Apomorphine Climbing): 75 mg/kg

Question: Which “Apomorphine-induced emesis: Number Protected/Number Dosed” value (Apomorphine Emesis; 1.0 mg/kg IV) does the source give for COc1cc(N)c(Cl)cc1C(=O)NC[C@@H]1CCCN1 [Compound 4, (L)-4-amino-5-chloro-2-methoxy-N--(2-pyrrolidinylmethyl)benzamide hydrochloride] here?
Answer: 0/4

Question: What about the Catalepsy (Catalepsy; hydrochloride) of the same compound?
Answer: No

Question: And the ED50 (Cisplatin Emesis)?
Answer: 1 mg/kg

Question: And the “Response … percent change from control” value (striatal DOPAC; 0.3 mg/kg)?
Answer: -1.9%

Question: And the “Response … percent change from control” value (striatal DOPAC; 1.0 mg/kg)?
Answer: -3.3%

Question: What about the “Response … percent change from control” value (striatal DOPAC; 3.3 mg/kg) of the same compound?
Answer: -3.7%

Question: And the “Response … percent change from control” value (striatal DOPAC; 10 mg/kg)?
Answer: 13.7%

Question: What about the “Response … percent change from control” value (striatal DOPAC; 33 mg/kg) of the same compound?
Answer: 41.6%

Question: And the ED50 (Apomorphine Climbing)?
Answer: 44.5 mg/kg

Question: Which Catalepsy (Catalepsy) does the source give for CCN1CCCC1CNC(=O)c1cc(Cl)cc2c1OCC2 (centres unmarked) [Compound C-1, 5-chloro-N--(1-ethyl-2-pyrrolidinylmethyl)-2,3-dihydrobenzo[b]furan-7-carboxamide hydrochloride] here?
Answer: Yes

Question: What about the ED50 (Cisplatin Emesis) of the same compound?
Answer: 1 mg/kg

Question: What about the ED50 (Apomorphine Climbing) of the same compound?
Answer: 0.91 mg/kg

Question: For CCN1CCCC1CNC(=O)c1cc(N)cc2c1OCC2 (centres unmarked) [Compound C-2, 5-amino-N--(1-ethyl-2-pyrrolidinylmethyl)-2,3-dihydrobenzo[b]furan-7-carboxamide hydrochloride], which Catalepsy (Catalepsy) is on record?
Answer: No

Question: What about the ED50 (Cisplatin Emesis) of the same compound?
Answer: 2.5 mg/kg

Question: What about the ED50 (Apomorphine Climbing) of the same compound?
Answer: 10.4 mg/kg

Question: With CCN1CCCC1CNC(=O)c1cc(Cl)c(N)c2c1OCC2 (centres unmarked) [Compound C-3, 4-amino-5-chloro-N--(1-ethyl-2-pyrrolidinylmethyl)-2,3-dihydrobenzo[b]furan-7-carboxamide fumarate] as the compound, how does the Catalepsy (Catalepsy) read?
Answer: Yes

Question: And the ED50 (Cisplatin Emesis)?
Answer: 0.7 mg/kg

Question: What about the ED50 (Apomorphine Climbing) of the same compound?
Answer: 1.5 mg/kg

Question: For CCN1CCCC1CNC(=O)c1cc(Cl)c(N)cc1OC (centres unmarked) [Compound C-4, 4-amino-5-chloro-2-methoxy-N--(1-ethyl-2-pyrrolidinylmethyl)benzamide], which Catalepsy (Catalepsy) is on record?
Answer: Yes

Question: And the ED50 (Cisplatin Emesis)?
Answer: 1 mg/kg

Question: And the ED50 (Apomorphine Climbing)?
Answer: 0.44 mg/kg

Question: For CCN(CC)CCNC(=O)c1cc(Cl)c(N)cc1OC [Metoclopramide, metoclopramide, reference compound], which “Apomorphine-induced emesis: Number Protected/Number Dosed” value (Apomorphine Emesis; 0.125 mg/kg IV) is on record?
Answer: 2/4

Question: What about the “Apomorphine-induced emesis: Number Protected/Number Dosed” value (Apomorphine Emesis; 1.0 mg/kg IV) of the same compound?
Answer: 4/4

Question: And the “Dacarbazine-induced emesis: Number Protected/Number Dosed” value (Dacarbazine Emesis)?
Answer: 3/4

Question: And the ED50 (Cisplatin Emesis)?
Answer: 1.1 mg/kg

Question: And the “cisplatin antiemetic activity (in words)” value (Cisplatin Emesis; data in Table 2)?
Answer: effective antiemetics

Question: And the “Response … percent change from control” value (striatal DOPAC; 0.1 mg/kg)?
Answer: 1.2%

Question: What about the “Response … percent change from control” value (striatal DOPAC; 0.3 mg/kg) of the same compound?
Answer: 12.4%

Question: And the “Response … percent change from control” value (striatal DOPAC; 1.0 mg/kg)?
Answer: 81.2%

Question: And the “Response … percent change from control” value (striatal DOPAC; 3.3 mg/kg)?
Answer: 192.0%

Question: What about the “Response … percent change from control” value (striatal DOPAC; 10 mg/kg) of the same compound?
Answer: 384.6%

Question: And the “dopamine antagonism suggested by Table 1 (in words)” value (striatal DOPAC; striatal DOPAC, i.v.)?
Answer: exhibits strong dopamine antagonism at doses of 1.0 mg/kg and greater

Question: And the “dopamine antagonist activity from Table 2 (in words)” value (Apomorphine Climbing; apomorphine climbing and catalepsy data)?
Answer: strong dopamine antagonists

Question: What about the ED50 (Apomorphine Climbing) of the same compound?
Answer: 1.7 mg/kg

Question: And the “effect on emesis caused by cisplatin (in words)” value [1]?
Answer: effective in alleviating emesis caused by cisplatin
